Measured values: patent US20240199623A1 (ILDONG PHARMACEUTICAL CO., LTD., priority 2020, published 2024)
pEC50: −log10 of the molar value.

Biological target: human wild type-CFTR (Homo sapiens, UniProt P13569)
Assay: Cell-based YFP assay
Parameters: expressed in transfected cells; host or cells: CHO-K1 (Chinese hamster ovary)
Conditions: CHO-K1 cells expressing human wild type-CFTR and YFP-H148Q/I152L; forskolin 20 μM = 100% activity; read-out: Cell-based YFP Assay (EC50) Concentration Range
Method in brief: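 CHO-K1 cells co-expressing human wild-type CFTR and YFP-H148Q/I152L halide sensor, grown 48 h at 37 °C, then in PBS. YFP quenching by I⁻ influx read at 37 °C after adding 140 mM I⁻ solution, sampled every 0.4 s for 14 s. Triplicates averaged; EC50 fitted.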

Chain of human wild type-CFTR (P13569 whole entry): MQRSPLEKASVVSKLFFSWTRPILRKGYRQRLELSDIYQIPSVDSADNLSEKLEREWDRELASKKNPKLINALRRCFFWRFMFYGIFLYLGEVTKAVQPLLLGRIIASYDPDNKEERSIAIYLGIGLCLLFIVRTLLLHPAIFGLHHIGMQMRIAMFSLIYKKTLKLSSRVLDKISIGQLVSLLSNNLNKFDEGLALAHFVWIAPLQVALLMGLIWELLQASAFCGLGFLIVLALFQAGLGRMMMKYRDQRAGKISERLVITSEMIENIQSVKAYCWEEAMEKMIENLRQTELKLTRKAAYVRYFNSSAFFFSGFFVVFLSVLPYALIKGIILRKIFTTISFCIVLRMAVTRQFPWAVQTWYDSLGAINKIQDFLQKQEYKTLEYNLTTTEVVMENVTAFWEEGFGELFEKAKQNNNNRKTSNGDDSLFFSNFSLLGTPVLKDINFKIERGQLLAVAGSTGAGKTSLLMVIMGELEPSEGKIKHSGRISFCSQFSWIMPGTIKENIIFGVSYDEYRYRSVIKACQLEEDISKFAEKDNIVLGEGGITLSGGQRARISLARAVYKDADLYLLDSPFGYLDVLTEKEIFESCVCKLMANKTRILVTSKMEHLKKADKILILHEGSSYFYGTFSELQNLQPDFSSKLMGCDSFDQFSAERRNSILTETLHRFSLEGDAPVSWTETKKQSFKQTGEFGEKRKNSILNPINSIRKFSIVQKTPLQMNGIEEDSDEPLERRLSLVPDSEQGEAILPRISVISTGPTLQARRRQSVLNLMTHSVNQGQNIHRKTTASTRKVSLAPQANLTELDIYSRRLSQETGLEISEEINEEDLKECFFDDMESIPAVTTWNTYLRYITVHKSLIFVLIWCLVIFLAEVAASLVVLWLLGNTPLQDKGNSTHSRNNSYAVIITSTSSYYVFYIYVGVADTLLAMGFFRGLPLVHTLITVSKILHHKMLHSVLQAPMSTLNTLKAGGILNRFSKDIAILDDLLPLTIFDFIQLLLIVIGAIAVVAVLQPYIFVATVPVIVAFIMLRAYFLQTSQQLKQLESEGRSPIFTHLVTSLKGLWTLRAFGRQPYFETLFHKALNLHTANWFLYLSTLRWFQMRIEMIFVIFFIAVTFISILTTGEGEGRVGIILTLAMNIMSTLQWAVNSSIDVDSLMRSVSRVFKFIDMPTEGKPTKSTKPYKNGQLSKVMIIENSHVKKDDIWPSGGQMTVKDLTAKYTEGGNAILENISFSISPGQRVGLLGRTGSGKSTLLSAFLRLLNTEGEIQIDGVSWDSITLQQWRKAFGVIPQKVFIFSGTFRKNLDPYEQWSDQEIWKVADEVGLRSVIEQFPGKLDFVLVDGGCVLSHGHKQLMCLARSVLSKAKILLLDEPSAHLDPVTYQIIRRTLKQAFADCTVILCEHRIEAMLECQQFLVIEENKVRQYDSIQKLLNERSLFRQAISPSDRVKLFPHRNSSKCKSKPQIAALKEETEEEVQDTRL

Row | pEC50 | SMILES
1 | > 6.70 | COC(=O)C[C@H](NC(=O)c1ccc(NC(=O)c2cc3nccc(-c4ccc(OC)c(OC)c4)n3n2)cc1)C(=O)OC [Compound 60, dimethyl (4-(7-(3,4-dimethoxyphenyl)pyrazolo [1,5-a]pyrimidine-2-carboxamido)benzoyl)-L-aspartate]
2 | > 6.70 | COc1ccc(-c2ccnc3cc(C(=O)N4C[C@@H](C)N(C(=O)c5ccccc5)[C@@H](C)C4)nn23)cc1OC [Compound 363, ((3R,5S)-4-benzoyl-3,5-dimethylpiperazin-1-yl)(7-(3,4-dimethoxyphenyl)pyrazolo[1,5-a]pyrimidin-2-yl) methanone]
3 | 5.70 to 6.70 | CCOC(=O)C1(NC(=O)c2cc3nccc(-c4ccc(OC)c(OC)c4)n3n2)CC1 [Compound 26, ethyl 1-(7-(3,4-dimethoxyphenyl)pyrazolo [1,5-a]pyrimidine-2-carboxamido) cyclopropane-1-carboxylate]
4 | ≤ 5.70 | COc1ccc(-c2ccnc3cc(C(=O)NCc4ccc(N5CCN(C)CC5)cc4)nn23)cc1OC [Compound 245, 7-(3,4-dimethoxyphenyl)-N-(4-(4-methylpiperazin-1-yl)benzyl)pyrazolo[1,5-a]pyrimidine-2-carboxamide]
5 | ≤ 5.70 | COc1ccc(-c2ccnc3cc(C(=O)Nc4ccc(C(=O)N5CCOCC5)nc4)nn23)cc1OC [Compound 264, 7-(3,4-dimethoxyphenyl)-N-(6-(morpholine-4-carbonyl)pyridin-3-yl) pyrazolo[1,5-a]pyrimidine-2-carboxamide]
6 | > 6.70 | COc1ccc(-c2ccnc3cc(C(=O)Nc4ccc(C(=O)N5CCN(C)CC5)c(F)c4)nn23)cc1OC [Compound 175, 7-(3,4-dimethoxyphenyl)-N-(3-fluoro-4-(4-methylpiperazine-1-carbonyl)phenyl)pyrazolo [1,5-a]pyrimidine-2-carboxamide]
7 | > 6.70 | COc1ccc(-c2ccnc3cc(C(=O)NC(=Cc4ccccc4)C(=O)N4CCN(C)CC4)nn23)cc1OC [Compound 134, 7-(3,4-dimethoxyphenyl)-N-(3-(4-methylpiperazin-1-yl)-3-oxo-1-phenylprop-1-en-2-yl)pyrazolo[1,5-a] pyrimidine-2-carboxamide]
8 | ≤ 5.70 | CCOc1ccc(NC(=O)c2cc3nccc(-c4ccc(OC)c([N+](=O)[O-])c4)n3n2)cc1 [Compound 295, N-(4-ethoxyphenyl)-7-(4-methoxy-3-nitrophenyl)pyrazolo [1,5-a]pyrimidine-2-carboxamide]
9 | > 6.70 | CC[C@H]1CN(C(=O)c2cc3nccc(-c4ccc(OC)c(OC)c4)n3n2)CCN1C(=O)c1ccccc1 [Compound 375, (S)-(4-benzoyl-3-ethylpiperazin-1-yl)(7-(3,4-dimethoxyphenyl)pyrazolo [1,5-a]pyrimidin-2-yl)methanone]
10 | > 6.70 | COc1ccc(-c2ccnc3cc(C(=O)N4CCN(C(=O)c5ccoc5)[C@@H](C)C4)nn23)cc1OC [Compound 370, (S)-(7-(3,4-dimethoxyphenyl)pyrazolo[1,5-a]pyrimidin-2-yl)(4-(furan-3-carbonyl)-3-methylpiperazin-1-yl)methanone]
11 | ≤ 5.70 | COc1ccc(-c2ccnc3cc(C(=O)Nc4ccc(C(=O)N(C)CCN(C)C)cc4)nn23)cc1OC [Compound 219, 7-(3,4-dimethoxyphenyl)-N-(4-((2-(dimethylamino)ethyl) (methyl)carbamoyl)phenyl)pyrazolo[1,5-a] pyrimidine-2-carboxamide]
12 | > 6.70 | COc1ccc(-c2ccnc3cc(C(=O)Nc4ccc5c(ccn5C)c4)nn23)cc1OC [Compound 309, 7-(3,4-dimethoxyphenyl)-N-(1-methyl-1H-indol-5-yl)pyrazolo [1,5-a]pyrimidine-2-carboxamide]
13 | ≤ 5.70 | COc1ccc(-c2ccnc3cc(C(=O)N[C@H]4CC[C@H](C(=O)N5CCC(N6CCOCC6)CC5)CC4)nn23)cc1OC [Compound 341, 7-(3,4-dimethoxyphenyl)-N-((1R,4R)-4-(4-morpholinopiperidine-1-carbonyl)cyclohexyl) pyrazolo[1,5-a] pyrimidine-2-carboxamide]
14 | > 6.70 | COCCOCOc1ccc(NC(=O)c2cc3nccc(-c4ccc(OC)c(OC)c4)n3n2)cc1 [Compound 346, 7-(3,4-dimethoxyphenyl)-N-(4-((2-methoxyethoxy)methoxy)phenyl)pyrazolo[1,5-a]pyrimidine-2-carboxamide]
15 | 5.70 to 6.70 | COc1ccc(-c2ccnc3cc(C(=O)Nc4ccc(CN5CCN(C)CC5)cc4)nn23)cc1OC [Compound 243, 7-(3,4-dimethoxyphenyl)-N-(4-((4-methylpiperazin-1-yl)methyl)phenyl)pyrazolo [1,5-a]pyrimidine-2-carboxamide]
16 | ≤ 5.70 | COc1ccc(-c2ccnc3cc(C(=O)NCc4ccc(C(=O)O)cc4)nn23)cc1OC [Compound 94, 4-((7-(3,4-dimethoxyphenyl)pyrazolo[1,5-a]pyrimidine-2-carboxamido)methyl) benzoic acid]
17 | 5.70 to 6.70 | COc1ccc(-c2ccnc3cc(C(=O)Nc4ccc(C(=O)NCCN5CCCCC5)cc4)nn23)cc1OC [Compound 119, 7-(3,4-dimethoxyphenyl)-N-(4-((2-(piperidin-1-yl)ethyl)carbamoyl)phenyl) pyrazolo[1,5-a]pyrimidine-2-carboxamide]

Row | pEC50 | SMILES
18 | 5.70 to 6.70 | COc1ccc(-c2ccnc3cc(C(=O)N4CCN(Cc5ccccc5)[C@@H](C)C4)nn23)cc1OC [Compound 206, (S)-(4-benzyl-3-methylpiperazin-1-yl) (7-(3,4-dimethoxyphenyl)pyrazolo [1,5-a]pyrimidin-2-yl)methanone]
19 | ≤ 5.70 | CCCCCCCCCCOC(=O)[C@H]1CC[C@H](NC(=O)c2cc3nccc(-c4ccc(OC)c(OC)c4)n3n2)CC1 [Compound 333, decyl (1r,4r)-4-(7-(3,4-dimethoxyphenyl)pyrazolo [1,5-a]pyrimidine-2-carboxamido)cyclohexane-1-carboxylate]
20 | > 6.70 | COc1ccc(-c2ccnc3cc(C(=O)Nc4ccc(CN5CCOCC5)cc4)nn23)cc1OC [Compound 244, 7-(3,4-dimethoxyphenyl)-N-(4-(morpholinomethyl)phenyl) pyrazolo[1,5-a]pyrimidine-2-carboxamide]
21 | ≤ 5.70 | COc1ccc(-c2ccnc3cc(C(=O)N[C@H]4CC[C@H](C(=O)N5CCNCC5)CC4)nn23)cc1OC [Compound 82, 7-(3,4-dimethoxyphenyl)-N-((1R,4R)-4-(piperazine-1-carbonyl)cyclohexyl) pyrazolo[1,5-a]pyrimidine-2-carboxamide]
22 | ≤ 5.70 | COC(=O)c1ccc(NC(=O)c2cc3nccc(-c4ccc5c(c4)OCCO5)n3n2)cc1 [Compound 70, methyl 4-(7-(2,3-dihydrobenzo[b][1,4]dioxin-6-yl)pyrazolo[1,5-a]pyrimidine-2-carboxamido)benzoate]
23 | ≤ 5.70 | COc1ccc(-c2ccnc3cc(C(=O)N4CC[C@@H](NC(=O)C5CCN(C)CC5)C4)nn23)cc1OC [Compound 188, (R)-N-(1-(7-(3,4-dimethoxyphenyl)pyrazolo [1,5-a]pyrimidine-2-carbonyl)pyrrolidin-3-yl)-1-methylpiperidine-4-carboxamide]
24 | ≤ 5.70 | CCOc1ccc(NC(=O)c2cc3nccc(-c4ccc(OC(F)(F)F)c(Cl)c4)n3n2)cc1 [Compound 298, 7-(3-chloro-4-(trifluoromethoxy)phenyl)-N-(4-ethoxyphenyl)pyrazolo [1,5-a]pyrimidine-2-carboxamide]
25 | 5.70 to 6.70 | CCOc1ccc(NC(=O)c2cc3nccc(-c4ccc(OC)c(F)c4)n3n2)cc1 [Compound 308, N-(4-ethoxyphenyl)-7-(3-fluoro-4-methoxyphenyl)pyrazolo [1,5-a]pyrimidine-2-carboxamide]
26 | ≤ 5.70 | CCOc1ccc(NC(=O)c2cc3nccc(-c4ccc(F)c(F)c4)n3n2)cc1 [Compound 293]
27 | ≤ 5.70 | COc1ccc(-c2ccnc3cc(C(=O)Nc4ccc(C(=O)NCCN5CCCC5)cc4)nn23)cc1OC [Compound 223, 7-(3,4-dimethoxyphenyl)-N-(4-((2-(pyrrolidin-1-yl)ethyl)carbamoyl)phenyl)pyrazolo[1,5-a]pyrimidine-2-carboxamide]
28 | ≤ 5.70 | O=C(Nc1ccc(N2CCOCC2)cn1)c1cc2nccc(-c3ccc(OC(F)(F)F)c(Cl)c3)n2n1 [Compound 299, 7-(3-chloro-4-(trifluoromethoxy)phenyl)-N-(5-morpholinopyridin-2-yl) pyrazolo[1,5-a]pyrimidine-2-carboxamide]
29 | > 6.70 | COc1ccc(-c2ccnc3cc(C(=O)N4CCN(C(=O)c5ccc(F)cc5)[C@@H](C)C4)nn23)cc1OC [Compound 350, (S)-(7-(3,4-dimethoxyphenyl)pyrazolo[1,5-a]pyrimidin-2-yl)(4-(4-fluorobenzoyl)-3-methylpiperazin-1-yl) methanone]
30 | > 6.70 | COc1ccc(-c2ccnc3cc(C(=O)Nc4ccc(C(=O)N5CCOCC5)c(F)c4)nn23)cc1OC [Compound 174, 7-(3,4-dimethoxyphenyl)-N-(3-fluoro-4-(morpholine-4-carbonyl)phenyl)pyrazolo[1,5-a]pyrimidine-2-carboxamide]
31 | > 6.70 | COc1ccc(-c2ccnc3cc(C(=O)Nc4ccc(C(=O)OCCN5CCOCC5)cn4)nn23)cc1OC [Compound 242, 2-morpholinoethyl 6-(7-(3,4-dimethoxyphenyl)pyrazolo [1,5-a]pyrimidine-2-carboxamido)nicotinate]
32 | ≤ 5.70 | COc1ccc(-c2ccnc3cc(C(=O)N4CCN[C@@H](C)C4)nn23)cc1OC [Compound 181, (S)-(7-(3,4-dimethoxyphenyl)pyrazolo[1,5-a]pyrimidin-2-yl)(3-methylpiperazin-1-yl)methanone]
33 | ≤ 5.70 | COc1ccc(-c2ccnc3cc(C(=O)Nc4ccc(N5CCOCC5)cn4)nn23)c(F)c1 [Compound 297, 7-(2-fluoro-4-methoxyphenyl)-N-(5-morpholinopyridin-2-yl) pyrazolo[1,5-a]pyrimidine-2-carboxamide]
